# Assay results: patent US20130064931A1, “INGREDIENT DELIVERY SYSTEM” (FIRMENICH SA, priority 2010, published 2013)
# What was measured:
# [1] = Photostability of compound 1 under UV (xenon lamp) irradiation, HPLC/UV-DAD measurement; assay type: physicochemical; details: for photodegradation protection of compound 1 (in words): Example 8, anionic and cationic surfactants; for % remaining (compound 1) / HPLC % remaining: 25 ppm compound 1 in water; for % remaining (compound 1): irradiated 120 min; for Time for complete degradation: compound 1 in water, HPLC % remaining reached 0
# Protocol: (§1) The photostability of compound 1 under UV irradiation was studied as follows.
# (§2) The sample to be irradiated was introduced into a transparent glass bottle, placed on a plate and then subjected to irradiation with a xenon lamp (Xenon lamp Suntest XLS+, Atlas Material Testing Technology LLC). The lamp was set to 650 W/m^2, the temperature was kept constant at 45° C. and the plate was turned slowly in order to assure homogeneous UV-exposure of the entire sample. After a fixed interval, the sample was removed and the content of compound 1 remaining was measured by HPLC and Fluorimetry.
# Firstly, a standard solution containing 26.44 mg caffeine in 11 LC-MS grade methanol was prepared. For samples containing 10 ppm of compound 1, the sample was placed in a vial, diluted to 500 μl and 50 μl of the standard solution was added; for samples containing 25 ppm of compound 1, the sample was placed in a vial, diluted to 400 μl and 200 μl of the standard solution was added. Each vial was protected from exposure to light by being wrapped in aluminium foil.
# The relative content of compound 1 in irradiated samples was calculated against the non-irradiated reference (set at 100%) using an Agilent Technologies 1200 series HPLC equipped with a degasser G1379B, a binary pump G1312B (large-volume mixer was by-passed), a well-plate high performance autosampler G1367D, a thermostatted column compartment G1316B and a UV (DAD) detector G1315C. The column (ZORBAX Eclipse Plus C18 600Bar 2.1×100 mm, 1.8 μm (#959764-902) was set at 60° C.±0.1° C. Two solvents were used: Solvent “A” was formic acid 0.1% in water, ULC/MS, Biosolve (ready-mix cat.# 23244102); solvent “B” was formic acid 0.1% in acetonitrile, ULC/MS, Biosolve (ready-mix cat. #01934125). The solvent flow rate was 0.500 ml/min; Injection: 2 μl.
# Solvent gradient: 0 min-1 min: 95% A • 1 min-8 min: 95% A à 100% B • 8 min-10 min: 100% B • 10 min-12 min: 100% B à 95% A • Post-equilibration 1 min
# Detector: UV-DAD: • Caffeine (internal standard): signal 273 nm, Bw 16 • Compound 1: signal 264 nm, Bw 8 • signal 230 nm, Bw 8
# The signal at 264 nm was used for the quantification calculations.
# [2] = Photostability of compound 1 under UV (xenon lamp) irradiation, fluorimetry measurement; assay type: physicochemical; details: 25 ppm compound 1 in water
# Protocol: as §1, §2
# The sample to be studied was placed in quartz cell (width lcm). Fluorescence was detected at an angle 90° to the incident exciting beam using a Fluorolog-3 spectrofluorometer (Model FL3-22, Jobin Yvon-Spex Instruments SA, Inc). […] Excitation and emission spectra of each sample were provided.
# For calibration, the excitation and emission spectra of compound 1 solutions were measured before and after irradiation. The intensity of the emission maximum of the unirradiated solution was given the value as 100%. The ratio between the intensities of emission maxima of irradiated and unirradiated samples was measured and the results calculated as a percentage.
smiles,measurement,setting,value
"CCCCCCCCCCCCOS(=O)(=O)[O-].[Na+] [SDS, Sodium dodecyl sulphate, reference compound]",photodegradation protection of compound 1 (in words),[1],little or no photodegradation protection
CCCNC(=O)C(C)(C)COc1cccc2c1C(N)=NS(=O)(=O)N2 [Compound 1],% remaining (compound 1),[1]; Polysorbate 80 concentration 0.0001572 % w/w,0%
same,% remaining (compound 1),[1]; Polysorbate 80 concentration 0.0002145 % w/w,0%
same,% remaining (compound 1),[1]; Polysorbate 80 concentration 0.001572 % w/w,0%
same,% remaining (compound 1),[1]; Polysorbate 80 concentration 0.008 % w/w,0%
same,% remaining (compound 1),[1]; Polysorbate 80 concentration 0.01 % w/w,0%
same,% remaining (compound 1),[1]; Polysorbate 80 concentration 0.05 % w/w,6.55%
same,% remaining (compound 1),[1]; Polysorbate 80 concentration 0.1 % w/w,6.81%
same,% remaining (compound 1),[1]; Polysorbate 80 concentration 0.5 % w/w,12.97%
same,% remaining (compound 1),[1]; Polysorbate 80 concentration 1 % w/w,22.24%
same,% remaining (compound 1),[1]; Polysorbate 80 concentration 4 % w/w,47%
same,% remaining (compound 1),[1]; Polysorbate 80 concentration 8.5 % w/w,88.57%
same,% remaining (compound 1),[1]; Polysorbate 80 concentration 15 % w/w,97.03%
same,HPLC % remaining,[1]; time of irradiation 0 min (non-irradiated reference set at 100%),100%
same,HPLC % remaining,[1]; time of irradiation 5 min,79.7%
same,HPLC % remaining,[1]; time of irradiation 10 min,62.2%
same,HPLC % remaining,[1]; time of irradiation 20 min,46.3%
same,HPLC % remaining,[1]; time of irradiation 30 min,32.3%
same,HPLC % remaining,[1]; time of irradiation 45 min,24.8%
same,HPLC % remaining,[1]; time of irradiation 60 min,18.7%
same,HPLC % remaining,[1]; time of irradiation 90 min,6.9%
same,HPLC % remaining,[1]; time of irradiation 120 min,0%
same,HPLC % remaining,[1]; time of irradiation 180 min,0%
same,Time for complete degradation,[1]; initial concentration 5 ppm,45 min
same,Time for complete degradation,[1]; initial concentration 10 ppm,60 min
same,Time for complete degradation,[1]; initial concentration 15 ppm,90 min
same,Time for complete degradation,[1]; initial concentration 25 ppm,120 min
same,Time for complete degradation,[1]; initial concentration 40 ppm,>180 min
same,Fluorimetry % remaining,[2]; time of irradiation 0 min (unirradiated solution given the value 100%),100%
same,Fluorimetry % remaining,[2]; time of irradiation 5 min,91.3%
same,Fluorimetry % remaining,[2]; time of irradiation 10 min,78.5%
same,Fluorimetry % remaining,[2]; time of irradiation 20 min,52.2%
same,Fluorimetry % remaining,[2]; time of irradiation 30 min,38.7%
same,Fluorimetry % remaining,[2]; time of irradiation 45 min,27.8%
same,Fluorimetry % remaining,[2]; time of irradiation 60 min,21.3%
same,Fluorimetry % remaining,[2]; time of irradiation 90 min,16.2%
same,Fluorimetry % remaining,[2]; time of irradiation 120 min,12.7%
same,Fluorimetry % remaining,[2]; time of irradiation 180 min,6.4%
"CCCCCCCCCCCCCCCC[N+](C)(C)C.[Br-] [CTAB, Cetyl trimethylammonium bromide, reference compound]",photodegradation protection of compound 1 (in words),[1],little or no photodegradation protection
